This note sets out measurements from PubChem BioAssay AID2060502 (Molecular Pharmacology Branch, DTP, NCI, 2025).

pIC50: −log10 of the molar value. Where “and” joins values, the source holds several entries; their conditions need not be identical. Equal values may be shown once.

For the experiment, the system named is 885724-159-R-J1-PDC complex spheroid viability. Description: Anticancer human tumor 885724-159-R-J1-PDC patient-derived pancreatic adenocarcinoma cell line growth inhibition [GQUAD]. The settings on record: for viability, T/C: stronger effect = lower value. From the text: DNA G-quadruplex Stabilizer Agents in Combinations in Complex Spheroids
A high-throughput screen of multi-cell type tumor spheroids was designed to identify active combinations of DNA G-quadruplex stabilizer agents and targeted small molecules. Complex spheroids include a stromal component modeled by human endothelial cells (HUVEC) and fibroblasts modeled by human mesenchymal stem cells (MSCs). The concentration ranges selected for each drug and investigational agent were based upon clinically achievable concentrations if the clinical Cmax of the agent was known.
Compounds. The drugs and investigational agents: pidnarulex (CX-5461; NSC782164), APTO-253 (NSC789042), BRACO-19 (NSC847499), peposertib (NSC802822), ceralasertib (NSC780249), elimusertib (NSC800525), camonsertib (NSC841442), AZD-1390 (NSC803789), olaparib (NSC753686), talazoparib (NSC767125), ART-558 (NSC835418), sotorasib (NSC818433), MRTX-1133 (NSC836407), SN-38 (NSC673596), topotecan (NSC609699), etoposide (NSC141540), doxorubicin (NSC123127), gemcitabine (NSC613327), 5-fluorouracil (NSC19893), paclitaxel (NSC125973), vemurafenib (NSC761431), panobinostat (NSC761190), R-306465 (JNJ-16241199; NSC773264), adavosertib (NSC754352), TP-3654 (NSC805149), carboplatin (NSC241240), KSQ-4279 (NSC840948), and staurosporine (NSC755774) were obtained from the National Cancer Institute (NCI) Developmental Therapeutics Program Chemical Repository (34). The FDA-approved anticancer drug set is available from the NCI Developmental Therapeutics Program. […] The stock solutions were prepared in dimethyl sulfoxide (DMSO, Sigma-Aldrich, St. Louis, MO, cat. D2650) at 800-fold the tested concentration and stored at -70 degrees C prior to their use. All drugs and investigational agents were tested over a range starting from a high concentration at or near the clinical Cmax and decreasing in half-log increments. If the clinical Cmax for an agent had not been determined, the highest concentration tested was 10 microM.
2.3 Cell Culture. All cells were maintained in an incubator at 37 degrees C and 5% CO2 with 95% humidity. The PDC lines were cultured according to standard operating procedures established by the NCI PDMR. All PDCs were thawed and cultured in Matrigel-coated flasks prepared with a working solution of 1X Ham's F-12 nutrient mix, without supplementation (Invitrogen, cat. 11765054), 100 U/mL penicillin-streptomycin (Invitrogen, cat. 15140122), and 2.5% Matrigel (Corning Inc., cat. 354248) for the first three passages. The 857933-349-R-J2-PDC line was cultured in 6C/Colon 1B media, which includes advanced DMEM/F-12 (Thermo Fisher Scientific, cat. 12634028), 10 mM HEPES (Thermo Fisher Scientific, cat. 15630080), 1X GlutaMAX supplement (Thermo Fisher Scientific, cat. 35050061), 0.1 mg/mL primocin (InvivoGen, cat. ant-pm-2), 10% defined fetal bovine serum, heat inactivated (HyClone Laboratories Inc., cat. SH30070.03HI), 50% L-WRN conditioned media (ATCC, cat. CRL-3276), 1.25 mM N-Acetyl-L-cysteine (Sigma-Aldrich, cat. A9165), 10 mM nicotinamide (Sigma-Aldrich, cat. N0636), 1X B-27 supplement (Thermo Fisher Scientific, cat. 17504044), 1X N-2 supplement (Thermo Fisher Scientific, cat. 17502048), 10 microM Y-27632 dihydrochloride (Tocris Bioscience, cat. 1254), and 50 ng/mL human EGF recombinant protein (Thermo Fisher Scientific, cat. PHG0311). The 485176-168-R4-J1-PDC line was cultured in Panc media, which includes all 6C/Colon 1B media components plus 100 ng/mL human FGF-10 (Thermo Fisher Scientific, cat. 100-26), 500 nM SB-431542 (Selleckchem, cat. S1067), and gastrin (Tocris, cat. 3006).
[…]

The mark [1] stands for this setting: curve of first compound, second compound 0.0316 µM.
Setting [2] is: curve of first compound, second compound 0.1 µM.
Setting [3] is: curve of first compound, second compound 0.316 µM.
The mark [4] stands for this setting: curve of first compound, second compound 1 µM.
Where [5] appears, read: curve of first compound, second compound 3.16 µM.
[6] abbreviates: curve of first compound, second compound 10 µM.
Where [7] appears, read: second compound 0.0316 µM, first compound 0.0316 µM.
Where [8] appears, read: second compound 0.0316 µM, first compound 0.316 µM.
Setting [9] is: second compound 0.1 µM, first compound 0.0316 µM.
Setting [10] is: second compound 0.1 µM, first compound 0.316 µM.
Where [11] appears, read: second compound 0.316 µM, first compound 0.0316 µM.
Where [12] appears, read: second compound 0.316 µM, first compound 0.316 µM.
The mark [13] stands for this setting: second compound 1 µM, first compound 0.0316 µM.
The mark [14] stands for this setting: second compound 1 µM, first compound 0.316 µM.
The mark [15] stands for this setting: second compound 3.16 µM, first compound 0.0316 µM.
[16] abbreviates: second compound 3.16 µM, first compound 0.316 µM.
Setting [17] is: second compound 10 µM, first compound 0.0316 µM.
Setting [18] is: second compound 10 µM, first compound 0.316 µM.
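Also: spheroids exposed to agents for seven days before readout.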
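For viability, T/C in this document: percent of vehicle control viability where 100% = DMSO wells.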

For the compound `C=CC(=O)N1CCN(c2nc(=O)n(-c3c(C)ccnc3C(C)C)c3nc(-c4c(O)cccc4F)c(F)cc23)C(C)C1` (stereo not given) + CN(C)c1ccc(Nc2c3ccc(NC(=O)CCN4CCCC4)cc3nc3cc(NC(=O)CCN4CCCC4)ccc23)cc1, the negative logarithm of the IC50 (pIC50) – broadly, −log10 of the IC50, conventionally taken in molar units – is less than 5.00 under setting [1]; less than 5.00 under setting [2]; less than 5.00 under setting [3]; less than 5.00 under setting [4]; less than 5.00 under setting [5]; less than 5.00 under setting [6]. The viability, T/C (in general, the result in the treated group divided by that in the control group, in per cent) reads like this: under setting [7], 98.5%; (second compound 0.0316 µM, first compound 0.1 µM) 101%; under setting [8], 96.2%; (second compound 0.0316 µM, first compound 1 µM) 93.4%; (second compound 0.0316 µM, first compound 3.16 µM) 103%; (second compound 0.0316 µM, first compound 10 µM) 95.6%. The viability, T/C by setting is: under setting [9], 101%; (second compound 0.1 µM, first compound 0.1 µM) 106%; under setting [10], 96.5%; (second compound 0.1 µM, first compound 1 µM) 98.5%; (second compound 0.1 µM, first compound 3.16 µM) 107%; (second compound 0.1 µM, first compound 10 µM) 87.5%. The viability, T/C under setting [11] is 90.5%; the viability, T/C (second compound 0.316 µM, first compound 0.1 µM) was 95.3%; the viability, T/C under setting [12] was 82.6%; the viability, T/C (second compound 0.316 µM, first compound 1 µM) was 82.5%; the viability, T/C (second compound 0.316 µM, first compound 3.16 µM) was 103%; the viability, T/C (second compound 0.316 µM, first compound 10 µM) is 89.2%. Moreover, the viability, T/C is, setting by setting: under setting [13], 86.2%; (second compound 1 µM, first compound 0.1 µM) 79.4%; under setting [14], 70.6%; (second compound 1 µM, first compound 1 µM) 79.3%; (second compound 1 µM, first compound 3.16 µM) 85.3%; (second compound 1 µM, first compound 10 µM) 82.3%. In addition, the viability, T/C runs as follows: under setting [15], 67%; (second compound 3.16 µM, first compound 0.1 µM) 74.1%; under setting [16], 84.4%; (second compound 3.16 µM, first compound 1 µM) 69.4%; (second compound 3.16 µM, first compound 3.16 µM) 83.8%; (second compound 3.16 µM, first compound 10 µM) 79.6%. The viability, T/C is, setting by setting: under setting [17], 64.8%; (second compound 10 µM, first compound 0.1 µM) 76%; under setting [18], 85.2%; (second compound 10 µM, first compound 1 µM) 84.6%; (second compound 10 µM, first compound 3.16 µM) 87.6%; (second compound 10 µM, first compound 10 µM) 73.3%.
Turning to `Cc1[nH]c2ccccc2c1CCNCc1ccc(/C=C/C(=O)NO)cc1`, the viability, T/C is 92.3% and 106% and 93.5% (compound 0.000999 µM); 91.4% and 98.9% and 103% (compound 0.00316 µM); 95.6% and 86.5% and 91.7% (compound 0.00999 µM); 108% and 83.9% and 98.7% (compound 0.0316 µM); 95.6% and 86.5% and 74.5% (compound 0.0999 µM); 47.5% and 47.9% and 42.7% (compound 0.316 µM). For the same compound, the pIC50 (curve of compound) is 6.53 and < 6.50 and 6.62.
In the case of `CC(C)(O)C1CCC(Nc2ccc3ncc(-c4cccc(C(F)(F)F)c4)n3n2)CC1` (stereo not given), the viability, T/C by setting is: (compound 0.0316 µM) 110% and 93.1% and 96.4%; (compound 0.1 µM) 95% and 90.9% and 102%; (compound 0.316 µM) 85.7% and 91.3% and 93.8%; (compound 1 µM) 75.3% and 74.9% and 73.6%; (compound 3.16 µM) 45.3% and 41.7% and 38.7%; (compound 10 µM) 46% and 47.1% and 39.8%. In addition, the pIC50 (curve of compound) is 5.35 and 5.59 and 5.65.
With `CC(C)n1c(=O)n(C)c2cnc3cc(F)c(-c4ccc(OCCCN5CCCCC5)nc4)cc3c21`, the viability, T/C was 102% (2×) and 106% (compound 0.0316 µM); 100% and 103% and 96.6% (compound 0.1 µM); 83.3% and 94.1% and 102% (compound 0.316 µM); 107% and 108% and 86.7% (compound 1 µM); 95.5% and 86.1% and 102% (compound 3.16 µM); 87.7% and 68.2% and 77.4% (compound 10 µM). Besides, the pIC50 (curve of compound) is less than 5.00.
Turning to `CCc1c2c(nc3ccc(O)cc13)-c1cc3c(c(=O)n1C2)COC(=O)[C@]3(O)CC` + Cc1[nH]c2ccc(F)cc2c1-c1nc2c3cccnc3c3ncccc3c2[nH]1, the pIC50 by setting is: under setting [1], 6.94; under setting [2], 6.96; under setting [3], 6.92; under setting [4], 6.90; under setting [5], greater than 9.00; under setting [6], 7.20. Further, the viability, T/C was 96.4% (second compound 0.0316 µM, first compound 0.000999 µM); 83.6% (second compound 0.0316 µM, first compound 0.00316 µM); 83.2% (second compound 0.0316 µM, first compound 0.00999 µM); 73.9% under setting [7]; 55.5% (second compound 0.0316 µM, first compound 0.0999 µM); 18.4% under setting [8]. The viability, T/C is 104% (second compound 0.1 µM, first compound 0.000999 µM); 90.5% (second compound 0.1 µM, first compound 0.00316 µM); 76.8% (second compound 0.1 µM, first compound 0.00999 µM); 70.4% under setting [9]; 60.9% (second compound 0.1 µM, first compound 0.0999 µM); 21.3% under setting [10]. Also, the viability, T/C runs as follows: (second compound 0.316 µM, first compound 0.000999 µM) 85.8%; (second compound 0.316 µM, first compound 0.00316 µM) 86%; (second compound 0.316 µM, first compound 0.00999 µM) 73.3%; under setting [11], 69.5%; (second compound 0.316 µM, first compound 0.0999 µM) 59.8%; under setting [12], 21.5%. In addition, the viability, T/C reads like this: (second compound 1 µM, first compound 0.000999 µM) 78%; (second compound 1 µM, first compound 0.00316 µM) 61.1%; (second compound 1 µM, first compound 0.00999 µM) 57.6%; under setting [13], 60.6%; (second compound 1 µM, first compound 0.0999 µM) 58.7%; under setting [14], 18.9%. The viability, T/C runs as follows: (second compound 3.16 µM, first compound 0.000999 µM) 43%; (second compound 3.16 µM, first compound 0.00316 µM) 28.7%; (second compound 3.16 µM, first compound 0.00999 µM) 28.4%; under setting [15], 21.3%; (second compound 3.16 µM, first compound 0.0999 µM) 14.1%; under setting [16], 7.27%. In addition, the viability, T/C was 63% (second compound 10 µM, first compound 0.000999 µM); 58.8% (second compound 10 µM, first compound 0.00316 µM); 46.8% (second compound 10 µM, first compound 0.00999 µM); 60.3% under setting [17]; 45.5% (second compound 10 µM, first compound 0.0999 µM); 21.4% under setting [18].
